{"source": "DBAASP", "assay_in_all_cases": "≥ marks a high value that may be exact or a test limit, other limits are often not marked, values filed in µg/mL are converted to µM", "key": {"Bacillus subtilis": {"test_system": "Bacillus subtilis"}, "Candida albicans": {"test_system": "Candida albicans"}, "Escherichia coli ML-35p": {"test_system": "Escherichia coli ML-35p"}, "[1]": {"test_system": "Listeria monocytogenes EGD"}, "[2]": {"test_system": "Neisseria gonorrhoeae F62"}, "[3]": {"test_system": "Neisseria gonorrhoeae FA19"}, "[4]": {"test_system": "Pseudomonas aeruginosa MR3007"}, "[5]": {"test_system": "Staphylococcus aureus 930918-3"}, "Alternaria alternata": {"test_system": "Alternaria alternata"}, "Botrytis cinerea": {"test_system": "Botrytis cinerea"}, "Cladosporium herbarum": {"test_system": "Cladosporium herbarum"}, "[6]": {"test_system": "Clavibacter michiganensis subsp. michiganensis DSM 46294"}, "[7]": {"test_system": "Pectobacterium carotovorum subsp. carotovorum DSM 30168"}, "[8]": {"test_system": "Pseudomonas corrugata DSM 7228"}, "[9]": {"test_system": "Pseudomonas syringae pv. syringae DSM 10604"}, "[10]": {"test_system": "Pseudomonas syringae pv. tomato DC3000"}, "[11]": {"test_system": "Xanthomonas vesicatoria DSM 50861"}, "[12]": {"test_system": "Bacillus subtilis KCTC 3038"}, "[13]": {"test_system": "Candida albicans ATCC 10231"}, "[14]": {"test_system": "Cryptococcus neoformans ATCC 34881"}, "[15]": {"test_system": "Enterococcus faecalis ATCC 29212"}, "[16]": {"test_system": "Escherichia coli ATCC 27325"}, "[17]": {"test_system": "Micrococcus luteus ATCC 10240"}, "[18]": {"test_system": "Pseudomonas aeruginosa ATCC 27853"}, "[19]": {"test_system": "Saccharomyces cerevisiae ATCC 44774"}, "[20]": {"test_system": "Salmonella typhimurium KCTC 2370"}, "[21]": {"test_system": "Staphylococcus aureus ATCC 15752"}, "[22]": {"test_system": "Bacillus subtilis ISW 1214"}, "Escherichia coli BL21": {"test_system": "Escherichia coli BL21"}, "[23]": {"test_system": "Candida albicans ATCC 90028"}, "Escherichia coli SPE 001": {"test_system": "Escherichia coli SPE 001"}, "[24]": {"test_system": "Pseudomonas aeruginosa ATCC 9027"}, "[25]": {"test_system": "Staphylococcus aureus NBRC 100910"}, "[26]": {"test_system": "Staphylococcus aureus SPM 101"}, "[27]": {"test_system": "Staphylococcus aureus USA 100"}, "[28]": {"test_system": "Staphylococcus aureus USA 300"}, "[29]": {"test_system": "Bacillus subtilis ATCC 62037"}, "[30]": {"test_system": "Pseudomonas putida ATCC 17426"}, "[31]": {"test_system": "Salmonella enterica subsp. enterica serovar Enteritidis ATCC 13076"}, "[32]": {"test_system": "Streptococcus mutans ATCC 25175"}, "[33]": {"test_system": "Staphylococcus aureus 90857"}}, "note": "Values joined by “and” are separate entries in the source; they are usually repeats but may differ in a detail not shown here. Equal values may be shown once.", "data": [{"compound": "CC(C)C[C@H](N)C(=O)N[C@H]1CSSC[C@@H](C(=O)N[C@H](C(N)=O)C(C)C)NC(=O)[C@H](C(C)C)NC(=O)[C@@H]2CSSC[C@H](NC(=O)[C@H](Cc3ccc(O)cc3)NC1=O)C(=O)N[C@@H](CCCN=C(N)N)C(=O)N[C@@H](CCCN=C(N)N)C(=O)N[C@@H](CCCN=C(N)N)C(=O)N[C@@H](Cc1ccccc1)C(=O)N2", "note": "[LCYCRRRFCVCV]", "values": [{"measurement": "MIC", "setting": "Bacillus subtilis", "result": "0.22 µM and 0.21 µM"}, {"measurement": "MIC", "setting": "Candida albicans", "result": 7.58, "unit": "µM"}, {"measurement": "MIC", "setting": "Escherichia coli ML-35p", "result": "0.28 µM and 0.26 µM"}, {"measurement": "MIC", "setting": "[1]", "result": "0.26 µM and 0.55 µM"}, {"measurement": "MIC", "setting": "[2]", "result": 0.64, "unit": "µM"}, {"measurement": "MIC", "setting": "[3]", "result": 1.34, "unit": "µM"}, {"measurement": "MIC", "setting": "[4]", "result": "0.2 µM and 0.29 µM"}, {"measurement": "MIC", "setting": "[5]", "result": "0.33 µM and 0.4 µM"}]}, {"compound": "CC(C)C[C@H](NC(=O)[C@H](C)NC(=O)CNC(=O)[C@H](CCCN=C(N)N)NC(=O)[C@H](Cc1ccccc1)NC(=O)[C@H](C)NC(=O)[C@H](CCCN=C(N)N)NC(=O)[C@H](Cc1ccccc1)NC(=O)[C@H](C)NC(=O)[C@H](C)NC(=O)[C@H](CC(C)C)NC(=O)[C@H](CCCN=C(N)N)NC(=O)[C@H](CCCN=C(N)N)NC(=O)[C@@H](N)CCCCN)C(=O)N[C@@H](CCCCN)C(=O)N[C@@H](CO)C(=O)N[C@H](C(=O)N[C@@H](CC(C)C)C(=O)N[C@@H](CCCCN)C(=O)N[C@@H](CCCCN)C(N)=O)C(C)C", "note": "[KRRLAAFRAFRGALKSVLKK]", "values": [{"measurement": "MIC", "setting": "Alternaria alternata", "result": "≥ 43.2", "unit": "µM"}, {"measurement": "MIC", "setting": "Botrytis cinerea", "result": "≥ 43.2", "unit": "µM"}, {"measurement": "MIC", "setting": "Cladosporium herbarum", "result": 8.63, "unit": "µM"}, {"measurement": "MIC", "setting": "[6]", "result": 2.16, "unit": "µM"}, {"measurement": "MIC", "setting": "[7]", "result": 17.3, "unit": "µM"}, {"measurement": "MIC", "setting": "[8]", "result": 1.08, "unit": "µM"}, {"measurement": "MIC", "setting": "[9]", "result": 2.16, "unit": "µM"}, {"measurement": "MIC", "setting": "[10]", "result": 2.16, "unit": "µM"}, {"measurement": "MIC", "setting": "[11]", "result": 2.16, "unit": "µM"}]}, {"compound": "CC(C)[C@H](NC(=O)CNC(=O)[C@H](CCC(N)=O)NC(=O)[C@@H](NC(=O)[C@@H](NC(=O)[C@@H]1CCCN1C(=O)[C@H](CCCN=C(N)N)NC(=O)[C@@H](NC(=O)[C@@H](NC(=O)[C@@H](N)CCCN=C(N)N)C(C)C)C(C)C)C(C)C)C(C)C)C(=O)N[C@@H](CCCCN)C(=O)N[C@@H](CCC(N)=O)C(=O)N[C@@H](CCCCN)C(=O)N[C@H](C(=O)N[C@@H](CCCN=C(N)N)C(=O)O)C(C)C", "note": "[RVVRPVVQGVKQKVR]", "values": [{"measurement": "MIC", "setting": "[12]", "result": "≥ 36.6", "unit": "µM"}, {"measurement": "MIC", "setting": "[13]", "result": 36.6, "unit": "µM"}, {"measurement": "MIC", "setting": "[14]", "result": "≥ 36.6", "unit": "µM"}, {"measurement": "MIC", "setting": "[15]", "result": "> 36.6", "unit": "µM"}, {"measurement": "MIC", "setting": "[16]", "result": "≥ 36.6", "unit": "µM"}, {"measurement": "MIC", "setting": "[17]", "result": "≥ 36.6", "unit": "µM"}, {"measurement": "MIC", "setting": "[18]", "result": 9.15, "unit": "µM"}, {"measurement": "MIC", "setting": "[19]", "result": 18.3, "unit": "µM"}, {"measurement": "MIC", "setting": "[20]", "result": "≥ 36.6", "unit": "µM"}, {"measurement": "MIC", "setting": "[21]", "result": "≥ 36.6", "unit": "µM"}]}, {"compound": "CC(=O)NCC(=O)N[C@@H](Cc1c[nH]c2ccccc12)C(=O)N[C@@H](CC(C)C)C(=O)N[C@@H](CCC(N)=O)C(=O)N[C@@H](CC(C)C)C(=O)N[C@@H](C)C(=O)N[C@@H](CCC(N)=O)C(=O)N[C@@H](Cc1cnc[nH]1)C(=O)N[C@@H](CC(C)C)C(=O)N[C@@H](CC(C)C)C(=O)N[C@@H](CCC(N)=O)C(=O)N[C@@H](CC(C)C)C(=O)NCC(=O)N[C@@H](CCC(N)=O)C(=O)N[C@@H](Cc1cnc[nH]1)C(=O)N[C@@H](CC(C)C)C(=O)N[C@@H](CC(C)C)C(=O)N[C@@H](CCC(N)=O)C(=O)N[C@@H](CC(C)C)C(=O)N[C@@H](C)C(=O)N[C@@H](CCC(N)=O)C(=O)N[C@@H](CCC(N)=O)C(=O)N[C@@H](CC(C)C)C(=O)N[C@@H](CCCN=C(N)N)C(=O)N[C@@H](CCCN=C(N)N)C(=O)N[C@@H](CCCN=C(N)N)C(N)=O", "note": "[GWLQLAQHLLQLGQHLLQLAQQLRRR]", "values": [{"measurement": "MIC", "setting": "[22]", "result": 2.5, "unit": "µM"}, {"measurement": "MIC", "setting": "Escherichia coli BL21", "result": "≥ 160", "unit": "µM"}]}, {"compound": "CC(C)C[C@H](NC(=O)[C@H](CCCCN)NC(=O)[C@H](CC(C)C)NC(=O)[C@H](CC(C)C)NC(=O)[C@H](CC(C)C)NC(=O)[C@H](CCCCN)NC(=O)[C@H](CC(C)C)NC(=O)[C@@H](N)CCCCN)C(=O)N[C@@H](CCCCN)C(N)=O", "note": "[KLKLLLKLK]", "values": [{"measurement": "MIC", "setting": "[23]", "result": "≥ 100", "unit": "µM"}, {"measurement": "MIC", "setting": "Escherichia coli SPE 001", "result": 7.3, "unit": "µM"}, {"measurement": "MIC", "setting": "[24]", "result": 12.5, "unit": "µM"}, {"measurement": "MIC", "setting": "[25]", "result": "≥ 117", "unit": "µM"}, {"measurement": "MIC", "setting": "[26]", "result": 1.82, "unit": "µM"}, {"measurement": "MIC", "setting": "[27]", "result": "≥ 50", "unit": "µM"}, {"measurement": "MIC", "setting": "[28]", "result": "≥ 50", "unit": "µM"}]}, {"compound": "CC[C@H](C)[C@H](NC(=O)[C@@H]1CCCN1C(=O)[C@H](Cc1c[nH]c2ccccc12)NC(=O)[C@H](CCC(N)=O)NC(=O)[C@H](CCCN=C(N)N)NC(=O)[C@@H](NC(=O)[C@@H](NC(=O)[C@@H](N)CCCN=C(N)N)C(C)C)C(C)C)C(=O)NCC(=O)N[C@@H](CCCN=C(N)N)C(=O)N[C@H](C(=O)N[C@H](C(=O)N[C@@H](CCCN=C(N)N)C(=O)N[C@@H](CCCN=C(N)N)C(=O)N[C@H](C(=O)N[C@H](C(=O)N[C@@H](CCCN=C(N)N)C(=O)N[C@@H](CCCN=C(N)N)C(=O)N[C@H](C(=O)N[C@H](C(=O)N[C@@H](CCCN=C(N)N)C(=O)N[C@@H](CC(C)C)C(=O)O)C(C)C)C(C)C)C(C)C)C(C)C)C(C)C)C(C)C", "note": "[RVVRQWPIGRVVRRVVRRVVRL]", "values": [{"measurement": "MIC", "setting": "[29]", "result": 0.726, "unit": "µM"}, {"measurement": "MIC", "setting": "[13]", "result": 0.726, "unit": "µM"}, {"measurement": "MIC", "setting": "[16]", "result": 0.726, "unit": "µM"}, {"measurement": "MIC", "setting": "[30]", "result": 1.45, "unit": "µM"}, {"measurement": "MIC", "setting": "[19]", "result": 0.726, "unit": "µM"}, {"measurement": "MIC", "setting": "[31]", "result": 1.45, "unit": "µM"}, {"measurement": "MIC", "setting": "[21]", "result": 0.726, "unit": "µM"}, {"measurement": "MIC", "setting": "[32]", "result": 0.726, "unit": "µM"}]}, {"compound": "CC[C@H](C)[C@H](NC(=O)[C@@H](NC(=O)[C@H](CCCCN)NC(=O)[C@H](CCCCN)NC(=O)[C@@H](NC(=O)[C@@H](NC(=O)[C@H](CCCCN)NC(=O)[C@@H](NC(=O)[C@H](CCCCN)NC(=O)[C@H](CCCCN)NC(=O)[C@H](CCCCN)NC(=O)[C@@H](N)CCCN=C(N)N)[C@@H](C)CC)[C@@H](C)CC)[C@@H](C)CC)[C@@H](C)CC)C(N)=O", "note": "[RKKKIKIIKKII]", "values": [{"measurement": "MIC", "setting": "[6]", "result": 1.66, "unit": "µM"}, {"measurement": "MIC", "setting": "[7]", "result": 6.63, "unit": "µM"}, {"measurement": "MIC", "setting": "[8]", "result": 3.31, "unit": "µM"}, {"measurement": "MIC", "setting": "[9]", "result": 0.331, "unit": "µM"}, {"measurement": "MIC", "setting": "[10]", "result": 3.31, "unit": "µM"}, {"measurement": "MIC", "setting": "[33]", "result": "≥ 62.5", "unit": "µM"}, {"measurement": "MIC", "setting": "[11]", "result": 1.66, "unit": "µM"}]}]}
